According to ChEMBL document CHEMBL1201862, “PubChem BioAssay data set” (2004):
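The compound was tested at five concentrations on cells cultured in 96-well plates, with a 48-hour exposure period. GI50 is the concentration that inhibits growth by half.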 The source made the active and inactive calls. Rule as the data show it: active = GI50 up to about 1.1 µM and inactive = higher.

Columns and labels:
Test in all cases: DTP human tumour cell line panel, 48 h
SK-MEL-28 = tested on: SK-MEL-28
A549 = tested on: A549
RXF 393 = tested on: RXF 393
HCT-15 = tested on: HCT-15
NCI-H460 = tested on: NCI-H460
CCRF-CEM = tested on: CCRF-CEM
MCF7 = tested on: MCF7
RPMI-8226 = tested on: RPMI-8226
MDA-MB-231 = tested on: MDA-MB-231
NCI-H522 = tested on: NCI-H522
UACC-62 = tested on: UACC-62
HOP-18 = tested on: HOP-18
OVCAR-4 = tested on: OVCAR-4
NCI-H23 = tested on: NCI-H23
IGROV-1 = tested on: IGROV-1
EKVX = tested on: EKVX
NCI/ADR-RES = tested on: NCI/ADR-RES
MOLT-4 = tested on: MOLT-4
SW-620 = tested on: SW-620
BT-549 = tested on: BT-549
HOP-62 = tested on: HOP-62
HL-60 = tested on: HL-60
HCC 2998 = tested on: HCC 2998
ACHN = tested on: ACHN
SN12C = tested on: SN12C
HT-29 = tested on: HT-29
SF-268 = tested on: SF-268
Malme-3M = tested on: Malme-3M
MDA-N = tested on: MDA-N
SK-MEL-2 = tested on: SK-MEL-2
OVCAR-5 = tested on: OVCAR-5
SR = tested on: SR
DMS-114 = tested on: DMS-114
DLD-1 = tested on: DLD-1
COLO 205 = tested on: COLO 205
DMS-273 = tested on: DMS-273
KM12 = tested on: KM12
TK-10 = tested on: TK-10
SK-OV-3 = tested on: SK-OV-3
OVCAR-8 = tested on: OVCAR-8
DU-145 = tested on: DU-145
A498 = tested on: A498
SK-MEL-5 = tested on: SK-MEL-5
T47D = tested on: T47D
K562 = tested on: K562
786-0 = tested on: 786-0
KM-20L2 = tested on: KM-20L2
U-251 = tested on: U-251
PC-3 = tested on: PC-3
OVCAR-3 = tested on: OVCAR-3
MDA-MB-435 = tested on: MDA-MB-435
UACC-257 = tested on: UACC-257
SNB-75 = tested on: SNB-75
UO-31 = tested on: UO-31
SNB-19 = tested on: SNB-19
Hs-578T = tested on: Hs-578T
M14 = tested on: M14
CAKI-1 = tested on: CAKI-1
SF-539 = tested on: SF-539
SF-295 = tested on: SF-295
NCI-H226 = tested on: NCI-H226

O=CC(NC(=O)N(CCCl)N=O)C(O)C(O)C(O)CO (stereo unspecified)
GI50 (SK-MEL-28): 817 µM (inactive)
GI50 (A549): 753 µM (inactive)
GI50 (RXF 393): 1150 µM (inactive)
GI50 (HCT-15): 1190 µM
GI50 (NCI-H460): 272 µM (inactive)
GI50 (CCRF-CEM): 348 µM (inactive)
GI50 (MCF7): 948 µM (inactive)
GI50 (RPMI-8226): 851 µM (inactive)
GI50 (MDA-MB-231): > 1100 µM (inactive)
GI50 (NCI-H522): 1160 µM (inactive)
GI50 (UACC-62): 47 µM (inactive)
GI50 (HOP-18): > 1250 µM (inactive)
GI50 (OVCAR-4): > 449 µM (inactive)
GI50 (NCI-H23): 993 µM (inactive)
GI50 (IGROV-1): 1000 µM (inactive)
GI50 (EKVX): > 1250 µM (inactive)
GI50 (NCI/ADR-RES): 953 µM (inactive)
GI50 (MOLT-4): 159 µM (inactive)
GI50 (SW-620): 832 µM (inactive)
GI50 (BT-549): 499 µM (inactive)
GI50 (HOP-62): 136 µM (inactive)
GI50 (HL-60): 287 µM (inactive)
GI50 (HCC 2998): > 1030 µM (inactive)
GI50 (ACHN): 346 µM (inactive)
GI50 (SN12C): 902 µM (inactive)
GI50 (HT-29): > 1250 µM (inactive)
GI50 (SF-268): 114 µM (inactive)
GI50 (Malme-3M): 347 µM (inactive)
GI50 (MDA-N): 312 µM (inactive)
GI50 (SK-MEL-2): 718 µM (inactive)
GI50 (OVCAR-5): 1140 µM (inactive)
GI50 (SR): 78.7 µM (inactive)
GI50 (DMS-114): 1040 µM (inactive)
GI50 (DLD-1): > 1250 µM (inactive)
GI50 (COLO 205): > 1250 µM (inactive)
GI50 (DMS-273): 1000 µM (inactive)
GI50 (KM12): > 1250 µM (inactive)
GI50 (TK-10): > 1250 µM (inactive)
GI50 (SK-OV-3): > 1160 µM (inactive)
GI50 (OVCAR-8): 1160 µM (inactive)
GI50 (DU-145): 553 µM (inactive)
GI50 (A498): 1120 µM (inactive)
GI50 (SK-MEL-5): 425 µM (inactive)
GI50 (T47D): 679 µM (inactive)
GI50 (K562): 575 µM (inactive)
GI50 (786-0): 56.6 µM (inactive)
GI50 (KM-20L2): > 1250 µM (inactive)
GI50 (U-251): 179 µM (inactive)
GI50 (PC-3): > 1250 µM (inactive)
GI50 (OVCAR-3): > 1250 µM (inactive)
GI50 (MDA-MB-435): 774 µM (inactive)
GI50 (UACC-257): 1050 µM (inactive)
GI50 (SNB-75): 262 µM (inactive)
GI50 (UO-31): > 1200 µM (inactive)
GI50 (SNB-19): 312 µM (inactive)
GI50 (Hs-578T): > 955 µM (inactive)
GI50 (M14): 748 µM (inactive)
GI50 (CAKI-1): 798 µM (inactive)
GI50 (SF-539): 119 µM (inactive)
GI50 (SF-295): 81.7 µM (inactive)
GI50 (NCI-H226): 1240 µM (inactive)
